Measurements as given in patent US5158939A, “Method of stimulating the immune systems of animals and compositions useful therefor” (priority 1990, dated 1992).
Entries after “also recorded” stand apart in the source; their conditions may differ. Where two headings read alike, the source gives them in different places.

How the values were obtained:
[1] = test system: RAW 264.7 cells; test: TNF production by RAW 264.7 cells, dilution for 50% killing of indicator cell line L929; assay type: cell-based, murine; conditions: for Dilution to get 50% killing: Table 1
Description: The TNF unit is derived by determining how far one can dilute the supernatant of the culture to achieve 50% killing of an indicator cell line.
TNF unit was derived by determining dilution of culture supernatant that kills 50 percent of the indicator cell line.
DPLA was added 2 hours before exposing culture to ReLPS. The ReLPS and DPLA were complexed with bovine serum albumin.^1

[2] = test system: 70Z/3 cells; assay type: cell-based
Description: ^1 Corrected for background of 5% fluorescence.
^2 The DPLA stimulated 7OZ/3 preB cells to the extent of from 2.5-6.0
fluorescence at concentrations of 1.0-10 mg/ml. In the competitive
inhibition experiment, the cells were first exposed to DPLA for 2 hours
before adding the ReLPS. In all experiments, the ReLPS and DPLA were
complexed with bovine serum albumin.
In this experiment, 0.1 μg/ml of ReLPS and 3.0 μg/ml of DPLA were
^1 The time of pre/post treatment of 7OZ/3 cells with DPLA relative t
the time of addition of ReLPS are indicated.

Structure (SMILES): CCCCCCC=CCCCCCC(=O)OC(CCCCCCCCCCC)CC(=O)NC1C(OCC2OC(OP(=O)(O)O)C(NC(=O)CC(=O)CCCCCCCCCCC)C(OC(=O)CC(O)CCCCCCC)C2O)OC(CO)C(OP(=O)(O)O)C1OC(=O)CC(O)CCCCCCC (stereo not drawn) [DPLA]
- induction of TNF ([1]; DPLA alone 10^4 ng/ml): measurable but low level in the induction of TNF
- inhibition at 0.01 µg/mL ([1]; Mus musculus, RAW264.7, Table 3, DPLA 10 ng/ml, ReLPS 1.0 ng/ml (ReLPS:DPLA 1:10), read-out: Inhibition of induction of TNF by ReLPS): 55%
- inhibition at 0.1 µg/mL ([1]; Mus musculus, RAW264.7, Table 3, DPLA 100 ng/ml, ReLPS 1.0 ng/ml (1:100), read-out: Inhibition of induction of TNF by ReLPS): 95%
- inhibition at 10 µg/mL ([1]; Mus musculus, RAW264.7, Table 3, DPLA 10000 ng/ml, ReLPS 1.0 ng/ml (1:10^4), read-out: Inhibition of induction of TNF by ReLPS): 81%
- induction of TNF ([1]; RAW 264.7 cells, indicator cell line L929): not effective in the induction of TNF; also recorded: lack of induction
- blocking of TNF induction by ReLPS ([1]; RAW 264.7 cells, in words): effectively antagonize the induction of TNF by toxic ReLPS in a dose-dependent manner; also recorded: block the induction of cachectin (TNF); also recorded: blocking of induction
- Dilution to get 50% killing ([1]; DPLA 10 ng/ml 2 h before ReLPS 1.0 ng/ml): 829
- Dilution to get 50% killing ([1]; DPLA 100 ng/ml 2 h before ReLPS 1.0 ng/ml): 112
- Dilution to get 50% killing ([1]; DPLA 1000 ng/ml 2 h before ReLPS 1.0 ng/ml): 86
- Dilution to get 50% killing ([1]; DPLA 10,000 ng/ml 2 h before ReLPS 1.0 ng/ml): 234
- Dilution to get 50% killing ([1]; DPLA alone 10 ng/ml): 0
- Dilution to get 50% killing ([1]; DPLA alone 100 ng/ml): 0
- Dilution to get 50% killing ([1]; DPLA alone 1000 ng/ml): 71
- Dilution to get 50% killing ([1]; DPLA alone 10,000 ng/ml): 346
- Dilution for 50% killing ([1]; Table 3, DPLA 10 ng/ml 2 h before ReLPS 1.0 ng/ml): 2287
- Dilution for 50% killing ([1]; Table 3, DPLA 100 ng/ml 2 h before ReLPS 1.0 ng/ml): 269
- Dilution for 50% killing ([1]; Table 3, DPLA 1000 ng/ml 2 h before ReLPS 1.0 ng/ml): 201
- Dilution for 50% killing ([1]; Table 3, DPLA 10000 ng/ml 2 h before ReLPS 1.0 ng/ml): 973
- Dilution for 50% killing ([1]; Table 3, DPLA alone 10 ng/ml, complexed with BSA): < 10
- Dilution for 50% killing ([1]; Table 3, DPLA alone 100 ng/ml, complexed with BSA): 19
- Dilution for 50% killing ([1]; Table 3, DPLA alone 1000 ng/ml, complexed with BSA): 201
- Dilution for 50% killing ([1]; Table 3, DPLA alone 10000 ng/ml, complexed with BSA): 764
- Activation (% fluorescence) ([2]; Table 4, DPLA 0.1 μg/ml 2 h before ReLPS 0.1 μg/ml): 52 % fluorescence
- Activation (% fluorescence) ([2]; Table 4, DPLA 0.3 μg/ml 2 h before ReLPS 0.1 μg/ml): 45 % fluorescence
- Activation (% fluorescence) ([2]; Table 4, DPLA 1.0 μg/ml 2 h before ReLPS 0.1 μg/ml): 26.5 % fluorescence
- Activation (% fluorescence) ([2]; Table 4, DPLA 3.0 μg/ml 2 h before ReLPS 0.1 μg/ml): 14 % fluorescence
- Activation (% fluorescence) ([2]; Table 5, DPLA 1.0 μg/ml, ReLPS 0): 3.5 % fluorescence
- Activation (% fluorescence) ([2]; Table 5, DPLA 1.0 μg/ml, ReLPS 0.1 μg/ml): 28.5 % fluorescence
- Activation (% fluorescence) ([2]; Table 5, DPLA 1.0 μg/ml, ReLPS 0.3 μg/ml): 48.5 % fluorescence
- Activation (% fluorescence) ([2]; Table 5, DPLA 1.0 μg/ml, ReLPS 1.0 μg/ml): 57.5 % fluorescence
- Activation (% fluorescence) ([2]; Table 5, DPLA 1.0 μg/ml, ReLPS 10 μg/ml): 75.5 % fluorescence
- Activation (% fluorescence) ([2]; Table 5, DPLA 3.0 μg/ml, ReLPS 0): 2.56 % fluorescence
- Activation (% fluorescence) ([2]; Table 5, DPLA 3.0 μg/ml, ReLPS 0.1 μg/ml): 13.5 % fluorescence
- Activation (% fluorescence) ([2]; Table 5, DPLA 3.0 μg/ml, ReLPS 0.3 μg/ml): 30 % fluorescence
- Activation (% fluorescence) ([2]; Table 5, DPLA 3.0 μg/ml, ReLPS 1.0 μg/ml): 55 % fluorescence
- Activation (% fluorescence) ([2]; Table 5, DPLA 3.0 μg/ml, ReLPS 10 μg/ml): 77 % fluorescence
- Activation (% fluorescence) ([2]; Table 5, DPLA 10 μg/ml, ReLPS 0.1 μg/ml): 4.5 % fluorescence
- Activation (% fluorescence) ([2]; Table 5, DPLA 10 μg/ml, ReLPS 0.3 μg/ml): 11 % fluorescence
- Activation (% fluorescence) ([2]; Table 5, DPLA 10 μg/ml, ReLPS 1.0 μg/ml): 25 % fluorescence
